Assay results reported in patent US7101900B2, “Benzyl amidoxime derivatives, intermediate products and method for their production and use as fungicides” (BASF Aktiengesellschaft, priority 1999, dated 2006).

Experiments:
[1] = tested on: powdery mildew of wheat (Erysiphe graminis forma specialis tritici); assay: Activity against mildew of wheat (protective spray test on wheat seedlings); assay type: in vivo; conditions: wheat seedlings c.v. Kanzler, dusted with spores 24 hours after spray coating dried, visual, total leaf area, after 7 days, untreated 95
Protocol: Activity Against Mildew of Wheat
Leaves of wheat seedlings c.v. “Kanzler” which had been grown in pots were sprayed to run off point with an aqueous preparation of active compound which had been prepared from a stock solution comprising 10% of active compound, 63% of cyclohexanone and 27% of emulsifier, and, 24 hours after the spray coating had dried on, dusted with spores of powdery mildew of wheat (Erysiphe graminis forma specialis tritici). The test plants were then placed in a greenhouse at 20–24° C. and 60–90% relative atmospheric humidity. After 7 days, the extent of the mildew development was determined visually in percent infection of the total leaf area.

[2] = tested on: cucumber mildew (Sphaerotheca fuliginea); assay: Protective activity against cucumber mildew (spray test on cucumber seedlings); assay type: in vivo; conditions: cucumber seedlings c.v. Chinesische Schlange, inoculated 20 hours after spray coating dried, visual, total leaf area, after 20 days, untreated 90
Protocol: Protective Activity Against Cucumber Mildew
At the two-leaf stage, leaves of cucumber seedlings c.v. “Chinesische Schlange” which had been grown in pots were sprayed to run off point with an aqueous preparation of active compound which had been prepared from a stock solution comprising 10% of active compound, 63% of cyclohexanone and 27% of emulsifier. 20 hours after the spray coating had dried on, the plants were inoculated with an aqueous spore suspension of cucumber mildew (Sphaerotheca fuliginea). The plants were then cultivated in a greenhouse at 20–24° C. and 60–80% relative atmospheric humidity for 20 days. The extent of the mildew development was then determined visually in % infection of the total leaf area.

Structure (SMILES) | % infection of the leaves after application of an aqueous preparation comprising 16 ppm of active compound [1] | % infection of the leaves after application of an aqueous preparation comprising 63 ppm of active compound [2]
O=C(Cc1ccccc1)NC(Cc1c(Cl)cccc1Cl)=NOCC1CC1 [No. 1, O-cyclopropylmethyl N-phenylacetyl-(2,6-dichlorophenyl)-acetamidoxime] | 3% | 10%
O=C(Cc1ccccc1)NC(Cc1c(F)cccc1Cl)=NOCC1CC1 [No. 2, O-cyclopropylmethyl N-phenylacetyl-(2-chloro-6-fluorophenyl)-acetamidoxime] | 3% | 10%
